T1: Type II Rac-GEF (Homo sapiens, UniProt Q8N5V2)
T1 construct: made in house; host or cells: E. coli BL21(DE3)pLysS, plasmid pET21a
T1 sequence (Q8N5V2 264-710 limits assumed): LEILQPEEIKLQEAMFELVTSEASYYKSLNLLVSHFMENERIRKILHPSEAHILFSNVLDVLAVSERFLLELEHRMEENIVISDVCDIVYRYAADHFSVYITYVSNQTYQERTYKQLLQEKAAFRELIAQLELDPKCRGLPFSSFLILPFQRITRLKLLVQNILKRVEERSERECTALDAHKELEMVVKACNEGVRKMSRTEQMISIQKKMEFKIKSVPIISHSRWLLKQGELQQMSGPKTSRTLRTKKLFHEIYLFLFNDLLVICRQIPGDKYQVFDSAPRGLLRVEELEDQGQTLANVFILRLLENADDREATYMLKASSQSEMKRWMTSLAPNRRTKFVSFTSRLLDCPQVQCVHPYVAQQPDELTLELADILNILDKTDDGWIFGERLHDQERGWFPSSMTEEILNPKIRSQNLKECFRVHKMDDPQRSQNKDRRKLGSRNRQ

B1: Rac GEF: Glu-epitope tagged Type I and Type II Rac-GEF proteins expressed in E. coli, partially pure (protein)
chain: MEYMPMEIRHDLEILQPEEIKLQEAMFELVTSEASYYKSLNLLVSHFMENERIRKILHPSEAHILFSNVLDVLAVSERFLLELEHRMEENIVISDVCDIVYRYAADHFSVYITYVSNQTYQERTYKQLLQEKAAFRELIAQLELDPKCRGLPFSSFLILPFQRITRLKLLVQNILKRVEERSERECTALDAHKELEMVVKACNEGVRKMSRTEQMISIQKKMEFKIKSVPIISHSRWLLKQGELQQMSGPKTSRTLRTKKLFHEIYLFLFNDLLVICRQIPGDKYQVFDSAPRGLLRVEELEDQGQTLANVFILRLLENADDREATYMLKASSQSEMKRWMTSLAPNRRTKFVSFTSRLLDCPQVQCVHPYVAQQPDELTLELADILNILDKTDDGWIFGERLHDQERGWFPSSMTEEILNPKIRSQNLKECFRVHKMDDPQRSQNKDRRKLGSRNRQ

Assays:
[1] = target: T2, 85 kD portion of human Tiam-1 protein (Homo sapiens, UniProt Q13009); assay: Tiam-1 Rac GEF activity assay (32P-GTP filter binding), 85 kD Tiam-1; assay type: biochemical; settings: 85 kD Tiam-1 truncation; room temperature, 10 minutes
T2 construct: This prote in contained an intact PDZ domain, Dbl-homology (DH) domain and adjacent pleckstrin homology (PH) domain; made in house; host or cells: baculovirus-infected Sf9 (S. frugiperda) cells
Method: (§1) The GEF activity of the various Tiam-1 constructs described above was determined in the presence and absence of certain compounds. The following assay was utilized. Reactions were conducted at room temperature in Buffer A (20 mM Hepes pH7.3, 50 mM NaCl, 2 mM DTT, 2 mM MgCl2). All proteins and compounds were diluted to 4× their final concentrations in Buffer A (GTPases were diluted in Buffer A containing 1 μM GDP). To dilute Ascorbyl Stearate, Ascorbyl Palmitate, and Stearic Acid, 25 mM ETOH solutions were slowly added to Buffer A while vortexing vigorously. Other lipids were resuspended in aqueous solution with vortexing and bath sonication and then diluted into Buffer A. Reactions were prepared and at time 0, λ-^32P-GTP (DuPont NEN #NEG006H) was added to 4.5 nM, and after 10 minutes reactions were stopped by filtering onto nitrocellulose filters (Millipore #HAWP02500) and immediately washed with wash buffer (25 mM Tris 7.5, 100 mM NaCl, 30 mM MgCl2). Bound λ-^32P-GTP was measured, using standard techniques.
The 85 kD portion of human Tiam-1 protein was produced in insect cells and purified by affinity chromatography, as described above. This prote in contained an intact PDZ domain, Dbl-homology (DH) domain and adjacent pleckstrin homology (PH) domain (FIG. 3). […] Several other lipids were tested to determine the specificity of activation. […] As a control, experiments were run to determine if IP3, IP2, ascorbic acid, stearic acid and ascorbic acid with stearic acid were sufficient to activate the GEF activity of Tiam-1.

[2] = target: T3, 135 kD Tiam-1 truncation (Homo sapiens, UniProt Q13009); assay: Tiam-1 Rac GEF activity assay (32P-GTP filter binding), 135 kD Tiam-1; assay type: biochemical
T3 construct: made in house; host or cells: baculovirus-infected Sf9 (S. frugiperda) cells
Method: as §1
(§2) It has been previously reported that Tiam-1 has GEE activity in the absence absence of lipids. See, Michiels, F., Habets, G. G., Stam, J. C., van der Kammen, R. A., and Collard, J. G. (1995) Nature 375,338-340. Those studies used a miouse version containing additional upstream sequences, including the N-terminal PH domain and the coiled-coil region. […]

[3] = test system: Type I Rac-GEF; assay: Guanine nucleotide exchange activity of Type I Rac-GEF with added PH domain ligand; assay type: biochemical, human; settings: Type I form lacking the Dbl insert region
Method: (§3) Two Rac-GEFs were tested for guanine nucleotide activity. Firstly, a Glu-epitope tag (MEYMPMEIRHD) (SEQ ID NO:32) was engineered onto the carboxy-terminal 423 amino acids of the Rac GEF encoded by EST No. 167059 by introducing the oligos 5′-[…]-3′ SEQ ID NO.5 and the complementary 5′-[…]-3′ SEQ ID NO.6 into the XhoI/EcoRI sites of the clone. The protein encoded by this construct is referred to as Type I Rac-GEF.
(§4) Next, the sequence encoding the insertion in the Dbl homology region, as described in Example 1, was engineered into the open reading frame in the expression plasmid pET21a (Novagen). The protein encoded by this construct is referred to as Type II Rac-GEF. The resulting expression plasmids were introduced into E. coli strain BL21(DE3)pLysS (Novagen), and the epitope tagged protein expression was induced with IPTG. The expressed proteins were purified using a resin with the antibody to the Glu-epitope covalently attached. The resulting proteins were partially pure and were assayed for exchange activity on Rac1, RhoA and Cdc42. See, Hart, in U.S. Ser. No. 60/029,979, filed Nov. 6, 1996 now abandoned.

[4] = test system: ΔPH versions of Tiam-1; assay: Tiam-1 Rac GEF activity assay, truncations with deleted C-terminal PH domain; assay type: biochemical, human; settings: truncations lacking half of the C-terminal PH domain and the rest of the C-terminus
Method: ΔPH versions of Tiam-1: The oligonucleotides 5′-[…]-3′ SEQ ID NO.24 and 5′-[…]-3′ SEQ ID NO.25 were used as linkers to recircularize Eco47III (4487) and XmaI-digested pAcC4-based expression vectors containing the 135 kD, 106 kD, 85 kD, and 66 kD versions of Tiam-1.
as §1, with “techniques. […]” for “techniques.”

[5] = target: T1, Type II Rac-GEF; assay: Guanine nucleotide exchange activity of Type II Rac-GEF with added PH domain ligand; assay type: biochemical; settings: Type II form containing the Dbl insert region
Method: as §3, §4

[6] = test system: Other truncations of Tiam-1, all containing the DH and PH domains; assay: Tiam-1 Rac GEF activity assay, other truncations containing the DH and PH domains; assay type: biochemical, human; settings: other Tiam-1 truncations containing DH and PH domains
Method: as §1, §2

[7] = test system: RhoA; assay: Exchange activity of Rac GEF on RhoA; assay type: biochemical; settings: partially pure Glu-tagged protein
Method: as §3, §4

[8] = test system: Cdc42; assay: Exchange activity of Rac GEF on Cdc42; assay type: biochemical; settings: partially pure Glu-tagged protein
Method: as §3, §4

[9] = test system: Rac1; assay: Exchange activity of Rac GEF on Rac1; assay type: biochemical; settings: partially pure Glu-tagged protein
Method: as §3, §4

T2 sequence (Q13009 837-1591 limits assumed): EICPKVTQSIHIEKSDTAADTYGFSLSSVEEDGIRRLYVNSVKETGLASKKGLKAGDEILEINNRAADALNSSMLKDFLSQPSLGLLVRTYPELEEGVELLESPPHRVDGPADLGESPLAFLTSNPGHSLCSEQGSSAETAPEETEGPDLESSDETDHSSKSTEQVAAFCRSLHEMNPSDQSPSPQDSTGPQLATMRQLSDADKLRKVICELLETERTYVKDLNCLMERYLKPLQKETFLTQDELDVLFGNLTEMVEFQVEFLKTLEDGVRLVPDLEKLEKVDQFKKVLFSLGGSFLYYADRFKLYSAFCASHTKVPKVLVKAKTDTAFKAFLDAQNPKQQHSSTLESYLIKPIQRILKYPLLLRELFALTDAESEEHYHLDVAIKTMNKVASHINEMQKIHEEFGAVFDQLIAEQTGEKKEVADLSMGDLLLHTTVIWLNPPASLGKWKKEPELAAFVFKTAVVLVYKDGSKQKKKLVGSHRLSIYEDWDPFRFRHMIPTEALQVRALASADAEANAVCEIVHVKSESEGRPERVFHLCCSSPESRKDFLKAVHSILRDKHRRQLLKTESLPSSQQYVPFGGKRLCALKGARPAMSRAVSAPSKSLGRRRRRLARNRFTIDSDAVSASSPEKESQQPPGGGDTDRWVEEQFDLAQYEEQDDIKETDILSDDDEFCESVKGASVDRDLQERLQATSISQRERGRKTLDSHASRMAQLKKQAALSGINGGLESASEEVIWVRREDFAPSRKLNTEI
T3 sequence (Q13009 402-1591 limits assumed): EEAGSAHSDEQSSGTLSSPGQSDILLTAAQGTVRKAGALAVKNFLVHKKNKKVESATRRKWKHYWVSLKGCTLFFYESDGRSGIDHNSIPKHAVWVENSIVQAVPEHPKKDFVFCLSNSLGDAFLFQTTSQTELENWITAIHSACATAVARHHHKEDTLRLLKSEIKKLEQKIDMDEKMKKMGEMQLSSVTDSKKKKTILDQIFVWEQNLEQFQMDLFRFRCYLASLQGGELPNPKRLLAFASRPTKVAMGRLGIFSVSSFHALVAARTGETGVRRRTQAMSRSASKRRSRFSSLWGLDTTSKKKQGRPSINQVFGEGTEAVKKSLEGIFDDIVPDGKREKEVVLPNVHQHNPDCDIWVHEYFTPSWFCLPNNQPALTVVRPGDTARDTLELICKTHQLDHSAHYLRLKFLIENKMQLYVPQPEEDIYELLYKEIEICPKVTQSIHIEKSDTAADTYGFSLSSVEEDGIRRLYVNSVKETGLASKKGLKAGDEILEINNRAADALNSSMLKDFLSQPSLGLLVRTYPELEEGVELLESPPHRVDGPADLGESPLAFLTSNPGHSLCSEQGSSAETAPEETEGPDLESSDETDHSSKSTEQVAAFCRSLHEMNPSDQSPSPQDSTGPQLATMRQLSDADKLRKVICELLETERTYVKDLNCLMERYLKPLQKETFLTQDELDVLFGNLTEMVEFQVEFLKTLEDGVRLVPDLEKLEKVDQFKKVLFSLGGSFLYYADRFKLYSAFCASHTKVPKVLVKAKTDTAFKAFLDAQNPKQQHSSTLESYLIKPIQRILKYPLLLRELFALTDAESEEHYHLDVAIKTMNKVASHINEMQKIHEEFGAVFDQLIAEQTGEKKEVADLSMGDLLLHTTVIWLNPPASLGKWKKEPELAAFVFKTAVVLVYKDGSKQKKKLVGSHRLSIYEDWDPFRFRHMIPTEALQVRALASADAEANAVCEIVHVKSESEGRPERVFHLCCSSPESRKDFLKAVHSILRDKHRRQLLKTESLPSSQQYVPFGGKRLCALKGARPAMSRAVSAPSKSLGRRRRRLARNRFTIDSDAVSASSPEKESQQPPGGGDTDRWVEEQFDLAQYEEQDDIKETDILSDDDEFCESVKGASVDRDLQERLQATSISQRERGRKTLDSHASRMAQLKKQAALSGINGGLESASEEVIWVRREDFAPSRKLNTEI

Row | Molecule | stimulation of Tiam-1 GEF activity (nucleotide exchange on Rac 1) [1] | also measured
1 | CCCCCCCCCCCCCCCC(=O)OC[C@H](O)[C@H]1OC(=O)C(O)=C1O [Ascorbyl palmitate] | significantly enhanced | 
2 | O[C@@H](CS)[C@@H](O)CS [DTT] | not to significantly stimulate | 
3 | O=P(O)(O)O[C@@H]1[C@H](O)[C@H](O)[C@@H](OP(=O)(O)O)[C@H](OP(=O)(O)O)[C@H]1O [IP3] | incapable of stimulating GEF activity | 
4 | O=C(O)CCP(CCC(=O)O)CCC(=O)O [TCEP, Tris (2-carboxyethyl)phosphine] | not to significantly stimulate | 
5 | O=C1O[C@H]([C@@H](O)CO)C(O)=C1O [ascorbic acid] | incapable of stimulating GEF activity | 
6 | CCCCCCCCCCCCCCCCCC(=O)OC[C@H](O)[C@H]1OC(=O)C(O)=C1O [ascorbyl stearate] | stimulated the rate of Tiam-1-mediated nucleotide exchange | stimulation of Tiam-1 GEF activity towards Rac [2]: greatly stimulated; effect of addition on exchange activity of Type I Rac-GEF [3]: unaffected; activation of Tiam-1 GEF activity [4]: not activated; effect of addition on exchange activity of Type II Rac-GEF [5]: strongly stimulated; stimulation of GEF activity on Rac 1 [6]: stimulated GEF activity
7 | CCCCCCCCO[C@@H]1O[C@H](CO)[C@@H](O)[C@H](O)[C@H]1O [nOG] | not to significantly stimulate | 
8 | CCCCCCCCCCCCCCCCCC(=O)O [stearic acid] | incapable of stimulating GEF activity | 
9 | NP40 | not to significantly stimulate | 
10 | TRITON X-100 | not to significantly stimulate | 
11 | phosphatidyiholine | little or no effect | 
12 | phosphatidylglycerol | little or no effect | 
13 | phosphatidylinositol | little or no effect | 
14 | phosphatidylinositol-3,4,5-trisphosphate | weak effects | 
15 | phosphatidylinositol-4,5-bisphosphate | significantly enhanced | 
16 | phosphatidylinositol-4-phosphate | significantly enhanced | 
17 | phosphatidylserine | weak effects | 
18 | B1 |  | exchange activity on RhoA [7]: displays activity; exchange activity on Cdc42 [8]: displays activity; exchange activity on Rac1 [9]: primarily selective

From patent US6340575B1, “Methods and compositions for treating abnormal cell growth related to unwanted guanine nucleotide exchange factor activity” (Onyx Pharmaceuticals, Inc., priority 1997, dated 2002)
